Ends that are not written are not given here.
Key:
food intake = test: Food intake in overnight-fasted NIH/SW mice; format: in vivo; settings: for effect on food intake: 60 min
Description: Female NIH/Swiss mice (8-12 weeks old) were group housed with a 12:12 hour light:dark cycle with lights on at 0600. Water and a standard pelleted mouse chow diet were available ad libitum, except as noted. Animals were fasted and housed individually starting at approximately 1500 hrs, 1 day prior to experiment. The morning of the experiment (approx. 0630 hrs), all animals were weighed and divided into experimental groups so as to give the most similar weight distribution between groups. In a typical study, n=10 for the control group and at least 5 for each treatment group. At time=0 min, all animals were given an intraperitoneal injection of vehicle or compound in a volume of 5 ml/kg and immediately given a pre-weighed amount (10-15 g) of the standard chow. […] Significant treatment effects were identified by ANOVA (p<0.05). Where a significant difference existed, test means were compared to the control mean using Dunnett's test (Prism v2.01, GraphPad Software Inc., San Diego, Calif.).

gastric emptying = test: Gastric emptying in HSD rats (3H-3-O-methyl-glucose gavage); format: in vivo; settings: for effect on gastric emptying: 40 minutes
Description: Male HSD rats, 180-215 g, were housed with a 12:12 hour light:dark cycle and fasted for 20 hrs (overnight). […] At t=1 min, a solution of 1 mL sterile water containing 5 μCi of ^3H-3-O-methyl-glucose was gavaged by oropharyngeal tube to conscious rats. Blood samples (10 μl) were collected 40 min after gavage and assayed for counts per minute (CPM) in plasma. To eliminate pain during tail vein sampling, 2% Lidocaine (0.1 ml) was injected 3-4 cm from the end of the tail (Gedulin, Jodka et al. Gastroenterology 108: […], 1995). Effects of the test compound were expressed as percent change relative to control, which was calculated as -100*(1-(mean value test rats/mean value controls)). Relative activity was defined as significant if p<0.05 as determined by ANOVA. Where a significant difference existed, test means were compared to the control mean using Dunnett's test (Prism v2.01, GraphPad Software Inc., San Diego, Calif.).

[1] = given peripherally, dose not given

Substance | effect on food intake (food intake; 100 μg/kg intraperitoneal) | effect on food intake (food intake; 500 μg/kg intraperitoneal) | effect on food intake (summary) (food intake; [1]) | effect on gastric emptying (gastric emptying; 500 μg/kg intraperitoneal) | effect on gastric emptying (summary) (gastric emptying; [1]) | effect on food intake (food intake; 200 μg/kg intraperitoneal) | effect on gastric emptying (gastric emptying; 200 μg/kg intraperitoneal)
Neuropeptide Y [NPY] | inactive | trend toward activity | modest decrease in food intake | inactive | completely inactive |  | 
Ac-PYY[22-36] (Ac-ASLRHYLNLVTRQRY; ends and bridges not checked; listed as Homo sapiens) |  |  |  |  |  | inactive | inactive
NPY[3-36] | inactive |  |  | inactive |  |  | 
